Measurements published in ChEMBL document CHEMBL1151555, “Total synthesis of an optically active 8-carba-physostigmine analog: a potent acetylcholinesterase inhibitor” (Bioorg Med Chem Lett, 1991).

Molecular target: Acetylcholinesterase (Homo sapiens, UniProt P22303)
Test: Concentration required to inhibit acetylcholinesterase isolated from human erythrocytes

Acetylcholinesterase, sequence (P22303 whole entry): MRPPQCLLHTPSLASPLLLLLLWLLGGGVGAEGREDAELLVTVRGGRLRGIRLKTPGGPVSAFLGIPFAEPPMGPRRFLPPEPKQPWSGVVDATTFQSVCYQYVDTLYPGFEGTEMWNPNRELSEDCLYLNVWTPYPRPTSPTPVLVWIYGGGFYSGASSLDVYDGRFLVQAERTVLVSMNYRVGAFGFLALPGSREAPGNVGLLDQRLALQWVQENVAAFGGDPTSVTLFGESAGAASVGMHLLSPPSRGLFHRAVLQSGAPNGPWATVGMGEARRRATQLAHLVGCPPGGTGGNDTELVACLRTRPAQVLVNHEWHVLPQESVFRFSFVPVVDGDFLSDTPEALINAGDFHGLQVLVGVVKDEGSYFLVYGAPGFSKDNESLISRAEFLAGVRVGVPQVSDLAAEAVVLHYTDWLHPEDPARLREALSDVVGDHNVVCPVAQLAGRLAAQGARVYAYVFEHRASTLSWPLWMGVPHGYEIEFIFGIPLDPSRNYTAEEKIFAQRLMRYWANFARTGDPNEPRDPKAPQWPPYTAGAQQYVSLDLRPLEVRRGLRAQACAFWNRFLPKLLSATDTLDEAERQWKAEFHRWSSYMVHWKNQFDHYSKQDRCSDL

CCCCCCNC(=O)Oc1ccc2c(c1)[C@]1(C)CCN(CC)[C@@H]1C2
IC50: 0.02 µM

CCCCCCNC(=O)Oc1ccc2c(c1)[C@@]1(C)CCN(CC)[C@H]1C2
IC50: 0.233 µM
